Experimental data reported in patent US8853246B2 (Dow AgroSciences LLC, priority 2009, dated 2014).
Where two headings read alike, the source gives them in different places.

Assays:
[1] = test system: Sweetpotato Whitefly-Crawler (Bemisia Tabaci); test: Insecticidal test for sweetpotato whitefly-crawler in foliar spray assay (col. BEMITA); assay type: in vivo; conditions: for pest or weed control at 200 ppm: Bemisia tabaci, read-out: BEMITA 200 ppm (Corrected % Control, rating)
Experimental: (§1) The compounds were tested against cotton aphid, green peach aphid, and sweet potato whitefly using procedures described in the following examples and reported in Table 2.
(§2) In each case of Table 2, the rating scale is as follows at 200 ppm.
Insecticidal Test for Sweetpotato Whitefly-Crawler (Bemisia Tabaci) in Foliar Spray Assay
Cotton plants grown in 3-inch pots, with 1 small (3-5 cm) true leaf, were used as test substrate. The plants were placed in a room with whitefly adults. Adults were allowed to deposit eggs for 2-3 days. After a 2-3 day egg-laying period, plants were taken from the adult whitefly room. Adults were blown off leaves using a hand-held Devilbiss sprayer (23 psi). Plants with egg infestation (100-300 eggs per plant) were placed in a holding room for 5-6 days at 82° F. and 50% RH for egg hatch and crawler stage to develop. Four cotton plants were used for each treatment. Compounds (2 mg) were dissolved in 1 mL of acetone solvent, forming stock solutions of 2000 ppm. The stock solutions were diluted 10× with 0.025% Tween 20 in H2O to obtain a test solution at 200 ppm. A hand-held Devilbiss sprayer was used for spraying a solution to both sides of cotton leaf until runoff. Reference plants (solvent check) were sprayed with the diluent only. Treated plants were held in a holding room for 8-9 days at approximately 82° F. and 50% RH prior to grading. Evaluation was conducted by counting the number of live nymphs per plant under a microscope. Insecticidal activity was measured by using Abbott's correction formula and presented in Table 2 (see col. “BEMITA”): Corrected % Control=100*(X−Y)/X • where X=No. of live nymphs on solvent check plants • Y=No. of live nymphs on treated plants Pesticidally Acceptable Acid Addition Salts, Salt Derivatives, Solvates, Ester Derivatives, Polymorphs, Isotopes and Radionuclides

[2] = test system: Green Peach Aphid (Myzus Persicae); test: Insecticidal test for green peach aphid in foliar spray assay (col. MYZUPE); assay type: in vivo; conditions: Myzus persicae, 72 h, read-out: MYZUPE 200 ppm (Corrected % Control, rating)
Experimental: as §1, §2
Insecticidal Test for Green Peach Aphid (Myzus Persicae) in Foliar Spray Assay
Cabbage seedlings grown in 3-inch pots, with 2-3 small (3-5 cm) true leaves, were used as test substrate. The seedlings were infested with 20-50 green peach aphids (wingless adult and nymph) one day prior to chemical application. Four pots with individual seedlings were used for each treatment. Compounds (2 mg) were dissolved in 2 mL of acetone/methanol (1:1) solvent, forming stock solutions of 1000 ppm. The stock solutions were diluted 5× with 0.025% Tween 20 in H2O to obtain a test solution at 200 ppm. A hand-held Devilbiss sprayer was used for spraying a solution to both sides of cabbage leaves until runoff. Reference plants (solvent check) were sprayed with the diluent only. Treated plants were held in a holding room for three days at approximately 25° C. and 40% relative humidity (RH) prior to grading. Evaluation was conducted by counting the number of live aphids per plant under a microscope. Corrected % Control=100*(X−Y)/X • where X=No. of live aphids on solvent check plants • Y=No. of live aphids on treated plants

Structure (SMILES) | pest or weed control at 200 ppm ([1]; sweetpotato whitefly-crawler) | pest or weed control at 200 ppm ([2]; green peach aphid) | other results
CCO[C@@H]1[C@@H](OC)[C@H](C)OC(OC(=O)Nc2sc(-c3cccnc3)nc2C)[C@@H]1OC (mixture of isomers) [Compound 182] | < 80% | 80 to 100% | –
CS[C@H]1CC1C(=O)N(C)c1sc(-c2cncc(F)c2)nc1Cl (mixture of isomers) [Compound 445] | – | – | pest or weed control at 200 ppm ([1]; Abbott's correction formula): 80 to 100%; pest or weed control at 200 ppm ([2]; Abbott's correction formula): 80 to 100%
CCN(C(=O)C1C[C@@H]1SC)c1sc(-c2cncc(F)c2)nc1Cl (mixture of isomers) [Compound 448] | – | – | pest or weed control at 200 ppm ([1]; Abbott's correction formula): 80 to 100%; pest or weed control at 200 ppm ([2]; Abbott's correction formula): 80 to 100%
CN(C(=O)C(F)(F)F)c1cnc(-c2cncc(F)c2)s1 [Compound 1, 2,2,2-trifluoro-N-[2-(5-fluoropyridin-3-yl)-thiazol-5-yl]-N-methyl-acetamide] | 80 to 100% | < 80% | –
CN(C(=O)C(F)(F)F)c1cnc(-c2cccnc2)s1 [Compound 2, 2,2,2-Trifluoro-N-methyl-N-(2-pyridin-3-yl-thiazol-5-yl)-acetamide] | < 80% | < 80% | –
CCc1nc(-c2cccnc2)sc1N(C)C(=O)C(F)(F)F [Compound 3, N-(4-Ethyl-2-pyridin-3-yl-thiazol-5-yl)-2,2,2-trifluoro-N-methyl-acetamide] | < 80% | < 80% | –
CN(C(=O)C(F)(F)F)c1sc(-c2cccnc2)nc1-c1ccccc1 [Compound 4, 2,2,2-Trifluoro-N-methyl-N-(4-phenyl-2-pyridin-3-yl-thiazol-5-yl)-acetamide] | < 80% | < 80% | –
CN(C(=O)C(F)(F)F)c1sc(-c2cccnc2)nc1Cl [Compound 6, N-(4-Chloro-2-pyridin-3-yl-thiazol-5-yl)-2,2,2-trifluoro-N-methyl-acetamide] | < 80% | < 80% | –
CC(C)(C)OC(=O)Nc1sc(-c2cccnc2)nc1C(F)(F)F [Compound 7, (2-pyridin-3-yl-4-trifluoromethyl-thiazol-5-yl)-carbamic acid tert-butyl ester] | < 80% | < 80% | –
Cc1nc(-c2cncnc2)sc1NC(=O)OC(C)(C)C [Compound 8, (4-Methyl-2-pyrimidin-5-yl-thiazol-5-yl)-carbamic acid tert-butyl ester] | – | 80 to 100% | –
Cc1nc(-c2cccnc2)sc1NC(=O)OC(C)(C)C [Compound 9, (4-Methyl-2-pyridin-3-yl-thiazol-5-yl)-carbamic acid tert-butyl ester] | 80 to 100% | 80 to 100% | –
CN(C(=O)OC(C)(C)C)c1sc(-c2cccnc2)nc1C(F)(F)F [Compound 10, methyl-(2-pyridin-3-yl-4-trifluoromethyl-thiazol-5-yl)carbamic acid tert-butyl ester] | 80 to 100% | < 80% | –
Cc1nc(-c2cncnc2)sc1N(C)C(=O)OC(C)(C)C [Compound 11, Methyl-(4-methyl-2-pyrimidin-5-yl-thiazol-5-yl)-carbamic acid tert-butyl ester] | – | < 80% | –
CCN(C(=O)OC(C)(C)C)c1sc(-c2cccnc2)nc1C [Compound 12, Ethyl-(4-methyl-2-pyridin-3-yl-thiazol-5-yl)-carbamic acid tert-butyl ester] | 80 to 100% | 80 to 100% | –
Cc1nc(-c2cccnc2)sc1N(C)C(=O)[C@@H](COCc1ccccc1)NC(=O)OC(C)(C)C [Compound 310] | – | < 80% | –
Cc1nc(-c2cccnc2)sc1N(C)C(=O)C(NC(=O)OC(C)(C)C)C(C)C (stereo not drawn) [Compound 311] | – | 80 to 100% | –
Cc1nc(-c2cccnc2)sc1N(C)C(=O)C1CCN1C(=O)OC(C)(C)C (stereo not drawn) [Compound 338] | – | – | BEMITA 200 ppm (Corrected % Control, rating) ([1]; sweetpotato whitefly-crawler): A (80-100)
CSCC(C)C(=O)N(C)c1sc(-c2cnc(Cl)c(F)c2)nc1Cl (stereo not drawn) [Compound 473] | – | – | pest or weed control at 200 ppm ([1]; Abbott's correction formula): < 80%
